≈ marks a conversion by molar mass, not a printed value.

In series [1] the test system is reserpine-induced dyskinesia. In words: Mouse reserpine-induced dyskinesia model (Laboras spontaneous activity). It is filed as in vivo, CD1 mice. From the text:
Reserpine is an indole alkaloid drug, which can inhibit the reuptake of noradrenergic neuron terminals to lead to slowed movement or incompetence, thereby inducing clinical symptoms similar to those of the Parkinson's disease. Its mechanism is as follows: the reserpine can block the transport of irreversible monoamines such as DA, 5-hydroxytryptamine (5-HT) and norepinephrine (NA) in vesicles, such that the monoamines are degraded in cells to consume central and peripheral monoamines, and rapidly reduce the level of monoamines, resulting in dyskinesias and other Parkinson's disease-like symptoms. An A2A receptor antagonist was administered to evaluate if the compound under test can ameliorate the dyskinesia of the mice. The evaluation indicators include walking distance, walking time, number of standings and standing time. […] The total number of actually used animals was 90. The animals were purchased from Charles River Laboratories in Beijing (Animal Certificate Number: 1100112011009984) and raised in the animal house of ChemPartner in Shanghai (Experimental Animal License: SYXK (Shanghai) 2017-0018). The animal house has an SPF environment. On the first day of the test, a single subcutaneous injection of 0.1% acetic acid or 0.6 mg/kg reserpine was performed based on the pre-set grouping and time points. After the injection, the animals were put back to rearing cages and pushed back to the original rearing room. The activity test was carried out on the second day of the test, and before the test, the Laboras system needed to be calibrated in advance to make it in a normal working state. […] The mice were put into an independent Laboras test box 50 minutes after the administration, and the Laboras behavior recording system was started up after 10 minutes of adaptation. The current moment is the 1st hour after the last administration for the animals, and the animals were recorded continuously for 60 minutes. After the test was completed, the Laboras behavior system automatically analyzed the walking distance (m), walking time (sec), the number of standings and standing time (sec) of the mice at 0-30 min, 30-60 min, 0-60 min and every 10 min. All measurement data were represented as mean±standard error of mean (mean±SEM), and check analysis was performed by Prism 8.0 statistical software.

For series [2], the system named is reserpine-induced dyskinesia. In words: Rat reserpine-induced dyskinesia model. It is filed as in vivo.
Series [3] is described as follows: Solubility in biological vehicles (SGF, FaSSIF, FeSSIF) at 37° C., HPLC. It is filed as physicochemical. As to conditions: for Solubility / solubility at 2 h: 2 h; for solubility at 0.5 h / solubility at 2 h: 37 °C, thermodynamic from solid. The protocol:
An Agilent HPLC 1260 series instrument was used in an HPLC analysis method. The HPLC method for testing solubility and stability was as follows:
In the experiment, the solubilities of the free-base crystal form and the acetate crystal form were determined at 37° C. in biological vehicles (simulated gastric fluid (SGF), fasted state stimulated intestinal fluid (FaSSIF) and fed state stimulated intestinal fluid (FeSSIF)). 3 mg of a sample was added to a sample bottle, and 1 mL of biologically relevant vehicle was added to the same. The suspension was shaken at a speed of 500 rpm at 37° C.

A further series addresses T1, human ADORA2B (Homo sapiens, UniProt P29275).
T1 construct: host or cells: HEK293
As to the kind of experiment: Calcium flow test (FLIPR), ADORA2B stably transfected HEK293. It is filed as cell-based. As to conditions: Table 9. From the text:
The binding of the A2AR agonist to A2AR could activate a downstream pathway to increase the intracellular calcium ion concentration. The antagonist would competitively occupy the binding site where the agonist binds to A2AR, thereby interrupting the intracellular signal transduction and leading to a change in the intracellular calcium ion concentration. By detecting the strength of the intracellular calcium ion signal, the antagonistic activities of the compound on human ADORA1, ADORA2A, ADORA2B and ADORA3 adenosine receptors were determined. […]
7) The FLIPR instrument software was operated; following a set program, 10 μL of experimental buffer salt solution was added to the cell plate; and fluorescence signals were read. Then, 10 μL of the reference compound of agonist at a predetermined concentration was added to the cell plate, and the fluorescence signals were read. After reading, data was exported by means of “Max-Min” and “Read 91 to Maximum allowed” in the software, the EC80 of each cell line was calculated, and an agonist with a concentration of 6×EC80 was prepared.
9) The FLIPR instrument software was operated; following a set program, 10 μL of the test compound and 10 μL of the reference compound were added at a predetermined concentration to the cell plate; and the fluorescence signals were read. […]

Setting [4] is: 10 mg/kg intragastric, 0-30 min.
Setting [5] is: 10 mg/kg intragastric, 0-60 min.
Setting [6] is: 10 mg/kg intragastric, 30-60 min.
[7] abbreviates: 15 mg/kg intragastric, 0-30 min.
Where [8] appears, read: 15 mg/kg intragastric, 0-60 min.
Where [9] appears, read: 15 mg/kg intragastric, 30-60 min.
Setting [10] is: fasted state simulated intestinal fluid (FaSSIF), fassif.
Where [11] appears, read: fed state simulated intestinal fluid (FeSSIF), fessif.
[12] abbreviates: simulated gastric fluid (SGF), simulated gastric fluid, SGF.
Setting [13] is: 3 mg/kg intragastric, 30-60 min.
Where [14] appears, read: 30 mg/kg intragastric, 0-30 min.
[15] abbreviates: 30 mg/kg intragastric, 0-60 min.
Setting [16] is: 30 mg/kg intragastric, 30-60 min.
Where [17] appears, read: 7.5 mg/kg intragastric, 0-30 min.
The mark [18] stands for this setting: 7.5 mg/kg intragastric, 0-60 min.
[19] abbreviates: 7.5 mg/kg intragastric, 30-60 min.

T1 sequence (P29275 whole entry): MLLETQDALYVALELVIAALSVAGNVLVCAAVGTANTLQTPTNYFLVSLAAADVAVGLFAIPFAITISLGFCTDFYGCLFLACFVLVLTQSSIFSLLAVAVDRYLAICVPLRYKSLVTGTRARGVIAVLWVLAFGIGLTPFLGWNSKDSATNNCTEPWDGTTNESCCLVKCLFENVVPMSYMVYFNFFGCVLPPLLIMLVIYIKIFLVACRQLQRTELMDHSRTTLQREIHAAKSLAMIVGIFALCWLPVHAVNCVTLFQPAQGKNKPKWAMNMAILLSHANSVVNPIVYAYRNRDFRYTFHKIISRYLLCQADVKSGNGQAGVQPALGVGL

Take `CCn1c(=O)c2c(nc(/C=C/c3ccc(OC)c(OC)c3)n2C)n(CC)c1=O` [Istradefylline, reference compound]: the Number of standings in series [1] (setting [4]) came out at 94.3 ± 11.1; in series [1] (setting [5]), 165 ± 20; in series [1] (setting [6]), 70.6 ± 10.6; in series [2] (setting [7]) it was 44.1 ± 7.9; in series [2] (setting [8]), 95.7 ± 16.3; in series [2] (setting [9]) it was 51.6 ± 9.7. For the same molecule, the Walking distance in series [1] (setting [4]) stood at 11.9 ± 1.4 m; in series [1] (setting [5]) it was 23.7 ± 3.2 m; in series [1] (setting [6]), 11.8 ± 2.0 m; in series [2] (setting [7]), 1.6 ± 0.6 m; in series [2] (setting [8]) it was 2.9 ± 0.9 m; in series [2] (setting [9]), 1.3 ± 0.4 m. Besides, the Walking time in series [1] (setting [4]) came to 177.5 ± 16.0 s; in series [1] (setting [5]), 298.3 ± 28.4 s; in series [1] (setting [6]) it was 120.8 ± 16.0 s; in series [2] (setting [7]), 19.6 ± 5.9 s; in series [2] (setting [8]), 35.1 ± 10.1 s; in series [2] (setting [9]), 32.0 ± 13.7 s.

One may read the Solubility as the dissolved amount per volume that the medium holds. Broadly, the solubility is the dissolved amount per volume that the medium holds. Higher therefore signals a readily soluble substance. In series [3] (SGF, acetate), `CC(=O)O.Nc1nc(NCCc2ccc(NC3COC3)cc2)nc2nc(-c3ccco3)nn12` [Acetate of Compound 22, 2-(furan-2-yl)-N5-(4-(oxetane-3-ylamino)phenethyl)-[1,2,4]triazolo[1,5-a][1,3,5]triazine-5,7-diamine acetate] displayed a Solubility of more than 2887 µg/mL. The solubility at 0.5 h in series [3] (setting [10]) was 9.3 µg/mL; in series [3] (setting [11]), 33.1 µg/mL; in series [3] (setting [12]), more than 2890 µg/mL. Also, the solubility at 2 h in series [3] (setting [10]) is 9.9 µg/mL; in series [3] (setting [11]) it was 33.8 µg/mL; in series [3] (setting [12]) it was more than 2890 µg/mL. Also, the Number of standings came out at 36.7 ± 5.9 in series [1] (3 mg/kg intragastric, 0-30 min); 49.6 ± 12.2 in series [1] (3 mg/kg intragastric, 0-60 min); 12.9 ± 6.8 in series [1] (setting [13]); 75.6 ± 8 in series [1] (setting [4]); 116 ± 15.7 in series [1] (setting [5]); 40.3 ± 11.4 in series [1] (setting [6]). Besides, the Number of standings was determined as 98.7 ± 12.6 in series [1] (setting [14]); 178 ± 20.9 in series [1] (setting [15]); 79.4 ± 10.1 in series [1] (setting [16]); 28.5 ± 7.1 in series [2] (setting [17]); 56.7 ± 12.6 in series [2] (setting [18]); 28.3 ± 6.9 in series [2] (setting [19]). Besides, the Number of standings was found to be 51.9 ± 7.4 in series [2] (setting [7]); 110 ± 12.7 in series [2] (setting [8]); 58.2 ± 7.7 in series [2] (setting [9]); 56.5 ± 9.6 in series [2] (setting [14]); 97.9 ± 15.3 in series [2] (setting [15]); 41.5 ± 6.7 in series [2] (setting [16]). In addition, the Walking distance in series [1] (3 mg/kg intragastric, 0-30 min) is reported as 4.3 ± 0.7 m; in series [1] (3 mg/kg intragastric, 0-60 min) it was 6.9 ± 2.1 m; in series [1] (setting [13]) it was 2.6 ± 1.6 m; in series [1] (setting [4]) it was 10.7 ± 1.0 m; in series [1] (setting [5]) it was 19.2 ± 2.9 m; in series [1] (setting [6]), 8.5 ± 2.3 m. The Walking distance in series [1] (setting [14]) amounted to 11.3 ± 1.1 m; in series [1] (setting [15]), 27.1 ± 2.5 m; in series [1] (setting [16]) it was 15.9 ± 1.9 m; in series [2] (setting [17]), 0.9 ± 0.3 m; in series [2] (setting [18]), 2.0 ± 0.6 m; in series [2] (setting [19]) it was 1.0 ± 0.3 m. Also, the Walking distance worked out at 1.8 ± 0.4 m in series [2] (setting [7]); 3.8 ± 0.6 m in series [2] (setting [8]); 2.0 ± 0.4 m in series [2] (setting [9]); 2.5 ± 1.0 m in series [2] (setting [14]); 3.9 ± 1.4 m in series [2] (setting [15]); 1.4 ± 0.4 m in series [2] (setting [16]). Besides, the Walking time in series [1] (3 mg/kg intragastric, 0-30 min) worked out at 77.8 ± 11.0 s; in series [1] (3 mg/kg intragastric, 0-60 min) it was 108.5 ± 23.0 s; in series [1] (setting [13]), 30.7 ± 13.9 s; in series [1] (setting [4]), 160.5 ± 10.8 s; in series [1] (setting [5]), 245.4 ± 29.1 s; in series [1] (setting [6]), 84.9 ± 22.4 s. Also, the Walking time in series [1] (setting [14]) was determined as 175.6 ± 12.4 s; in series [1] (setting [15]), 311.0 ± 22.3 s; in series [1] (setting [16]) it was 135.4 ± 12.8 s; in series [2] (setting [17]), 9.3 ± 4.3 s; in series [2] (setting [18]) it was 17.8 ± 7.5 s; in series [2] (setting [19]) it was 16.2 ± 7.6 s. In addition, the Walking time in series [2] (setting [7]) is 26.3 ± 5.6 s; in series [2] (setting [8]), 48.5 ± 8.2 s; in series [2] (setting [9]) it was 40.3 ± 15.6 s; in series [2] (setting [14]) it was 35.8 ± 12.6 s; in series [2] (setting [15]), 52.9 ± 17.5 s; in series [2] (setting [16]), 33.2 ± 12.2 s.

By IC50 is commonly meant the point on the concentration scale where inhibition reaches its midpoint. With `Nc1nc(NCCc2ccc(NC3COC3)cc2)nc2nc(-c3ccco3)nn12` [Compound 22, 2-(furan-2-yl)-N5-(4-(oxetan-3-ylamino)phenethyl)-[1,2,4]triazolo[1,5-a][1,3,5]triazine-5,7-diamine], in series [3] (SGF, listed as Free base), the Solubility was 712.1 µg/mL (≈ 1810 µM). The solubility at 0.5 h in series [3] (setting [10]) was 3.7 µg/mL (≈ 9.43 µM); in series [3] (setting [11]), 7 µg/mL (≈ 17.8 µM); in series [3] (setting [12]), 622 µg/mL (≈ 1590 µM). For the same molecule, the results for the solubility at 2 h in series [3] (setting [10]), in series [3] (setting [11]) and in series [3] (setting [12]) were 4.2 µg/mL (≈ 10.7 µM), 8.8 µg/mL (≈ 22.4 µM) and 712 µg/mL (≈ 1810 µM), respectively. Moreover, the IC50 on human ADORA2B is 106 ± 29.2 nM.

As to `Cn1nnc(-c2ccc(CCNc3nc(N)n4nc(-c5ccco5)nc4n3)cc2)n1` [Compound 40, N5-(4-(2-methyl-2H-tetrazol-5-yl)phenethyl)-2-(furan-2-yl)-[1,2,4]triazolo[1,5-a][1,3,5]triazine-5,7-diamine], on human ADORA2B, the IC50 came out at 194 ± 25.5 nM.

The values are drawn from patent US20230048888A1, “USE OF TRIAZOLOTRIAZINE DERIVATIVE IN TREATMENT OF DISEASES” (ZHEJIANG VIMGREEN PHARMACEUTICALS, LTD., priority 2019, published 2023).
